pIC50: −log10 of the molar value.
Molecular target: human orexin-2 receptor (Homo sapiens (Human), UniProt O43614)
Experiment: FLIPR Ca2+ Flux Assay, orexin-2 receptor
Format: cell-based
Details: CHO cells expressing the human orexin-2 receptor; agonist 70 pM Ala-6,12 orexin-A; read-out: hOX2R FLIPR IC50
Experimental: In a typical experiment the OX1 and OX2 receptor antagonistic activity of the compounds of the present invention was determined in accordance with the following experimental method. For intracellular calcium measurements, Chinese hamster ovary (CHO) cells expressing the rat orexin-1 receptor or the human orexin-2 receptor, are grown in Iscove's modified DMEM containing 2 mM L-glutamine, […], 1% hypoxanthine-thymidine supplement, 100 U/ml penicillin, 100 μg/ml streptomycin and 10% heat-inactivated fetal calf serum (FCS). The cells are seeded at 20,000 cells/well into Becton-Dickinson black 384-well clear bottom sterile plates coated with poly-D-lysine. All reagents were from GIBCO-Invitrogen Corp. The seeded plates are incubated overnight at 37° C. and 5% CO2. Ala-6,12 human orexin-A as the agonist is prepared as a 1 mM stock solution in 1% bovine serum albumin (BSA) and diluted in assay buffer (HBSS containing 20 mM HEPES, 0.1% BSA and 2.5 mM probenecid, pH7.4) for use in the assay at a final concentration of 70 pM. Test compounds are prepared as 10 mM stock solution in DMSO, then diluted in 384-well plates, first in DMSO, then assay buffer. On the day of the assay, cells are washed 3 times with 100 μl assay buffer and then incubated for 60 min (37° C., 5% CO2) in 60 μl assay buffer containing 1 μM Fluo-4AM ester, 0.02% pluronic acid, and 1% BSA. The dye loading solution is then aspirated and cells are washed 3 times with 100 μl assay buffer. 30 μl of that same buffer is left in each well. Within the Fluorescent Imaging Plate Reader (FLIPR, Molecular Devices), test compounds are added to the plate in a volume of 25 μl, incubated for 5 min and finally 25 μl of agonist is added. Fluorescence is measured for each well at 1 second intervals for 5 minutes and the height of each fluorescence peak is compared to the height of the fluorescence peak induced by 70 pM Ala-6,12 orexin-A with buffer in place of antagonist. For each antagonist, IC50 value (the concentration of compound needed to inhibit 50% of the agonist response) is determined. Alternatively, compound potency can be assessed by a radioligand binding assay (described in Bergman et. al. Bioorg. Med. Chem. Lett. 2008, 18, 1425-1430) in which the inhibition constant (Ki) is determined in membranes prepared from CHO cells expressing either the OX1 or OX2 receptor. The intrinsic orexin receptor antagonist activity of a compound which may be used in the present invention may be determined by these assays.

Chain of human orexin-2 receptor (O43614 whole entry): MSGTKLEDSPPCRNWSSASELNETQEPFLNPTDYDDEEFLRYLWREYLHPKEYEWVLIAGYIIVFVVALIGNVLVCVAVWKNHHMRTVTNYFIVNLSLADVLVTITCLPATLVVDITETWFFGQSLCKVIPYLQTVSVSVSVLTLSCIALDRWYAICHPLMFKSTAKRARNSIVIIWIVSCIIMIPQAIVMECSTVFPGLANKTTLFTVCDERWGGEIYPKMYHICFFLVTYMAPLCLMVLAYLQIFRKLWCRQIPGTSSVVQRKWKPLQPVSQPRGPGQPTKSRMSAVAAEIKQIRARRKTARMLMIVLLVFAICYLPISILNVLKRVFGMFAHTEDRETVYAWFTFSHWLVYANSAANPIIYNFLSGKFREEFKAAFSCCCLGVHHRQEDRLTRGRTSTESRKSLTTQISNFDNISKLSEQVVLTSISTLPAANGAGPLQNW

Row | SMILES | pIC50
1 | CCN(CCN(C)c1cccc(C(C)(C)O)n1)C(=O)c1ccccc1-n1ncnn1 [Example I-23, N-ethyl-N-(2-((6-(2-hydroxypropan-2-yl)pyridin-2-yl)(methyl)amino)ethyl)-2-(2H-tetrazol-2-yl)benzamide] | 7.16
2 | CCN(CCN(C)c1nccc(C(C)(C)O)n1)C(=O)c1cccnc1OCC(F)(F)F [Example H-17] | 7.66
3 | CCN(CCN(C)c1nccc(C(C)(C)O)n1)C(=O)c1ccccc1-n1ncnn1 [Example H-29, N-ethyl-N-(2-((4-(2-hydroxypropan-2-yl)pyrimidin-2-yl)(methyl)amino)ethyl)-2-(2H-tetrazol-2-yl)benzamide] | 7.77
4 | CCN(CCN(C)c1nccc(C(C)(C)O)n1)C(=O)c1ccccc1OC(F)(F)F [Example H-27] | 8.00
5 | CCN(CCN(C)c1cc(C#N)ccn1)C(=O)c1cccc2oc(=O)[nH]c12 [Example F-23, N-{2-[(4-cyanopyridin-2-yl)(methyl)amino]ethyl}-N-ethyl-2-oxo-2,3-dihydro-1,3-benzoxazole-4-carboxamide] | 5.00
6 | CCOc1ncccc1C(=O)N(CC)CCN(C)c1cccc(C(C)(C)O)n1 [Example I-25, 2-ethoxy-N-ethyl-N-(2-((6-(2-hydroxypropan-2-yl)pyridin-2-yl)(methyl)amino)ethyl)nicotin-amide] | 6.33
7 | CCN(CCN(CC)c1nc(C)cc(C)n1)C(=O)c1ccccc1-n1nccn1 [Example C-1, N-(2-((4,6-dimethylpyrimidin-2-yl)(ethyl)amino)ethyl)-N-ethyl-2-(2H-H-1,2,3-triazol-2-yl)benzamide] | 7.44
8 | CCN(CCN(C)c1cc(C#N)ccn1)C(=O)c1c(F)cccc1-n1ccnn1 [Example F-17, N-{2-[(4-cyanopyridin-2-yl)(methyl)amino]ethyl}-N-ethyl-2-fluoro-6-(1H-1,2,3-triazol-1-yl)benzamide] | 6.02
9 | CCN(CCN(C)c1nc(C)cc(C)n1)C(=O)c1ncccc1-n1nccn1 [Example B-22, N-{2-[(4,6-dimethylpyrimidin-2-yl)(methyl)amino]ethyl}-N-ethyl-3-(2H-1,2,3-triazol-2-yl)pyridine-2-carboxamide] | 7.49
10 | CCOc1ccccc1C(=O)N(CC)CCN(C)c1cccc(C(C)(C)O)n1 [Example I-18, 2-ethoxy-N-ethyl-N-(2-((6-(2-hydroxypropan-2-yl)pyridin-2-yl)(methyl)amino)ethyl)benz-amide] | 6.81
11 | CCN(CCN(C)c1cc(C#N)ccn1)C(=O)c1ccccc1-n1ccnc1 [Example F-9, N-{2-[(4-cyanopyridin-2-yl)(methyl)amino]ethyl}-N-ethyl-2-(1H-imidazol-1-yl)benzamide] | 5.00
12 | CCN(CCN(C)c1cc(C#N)ccn1)C(=O)c1cccnc1OCc1ccccc1 [Example F-6, 2-(benzyloxy)-N-{2-[(4-cyanopyridin-2-yl)(methyl)amino]ethyl}-N-ethylpyridine-3-carboxamide] | 7.01
13 | CCN(CCN(C)c1nc(C)cc(C)n1)C(=O)c1nccnc1N1CCCC1 [Example B-25, N-{2-[(4,6-dimethylpyrimidin-2-yl)(methyl)amino]ethyl}-N-ethyl-3-pyrrolidin-1-ylpyrazine-2-carboxamide] | 6.49
14 | CCN(CCN(C)c1cc(C#N)ccn1)C(=O)c1ccccc1N1CCCC1 [Example F-22, N-{2-[(4-cyanopyridin-2-yl)(methyl)amino]ethyl}-N-ethyl-2-pyrrolidin-1-ylbenzamide] | 7.50
15 | CCN(CCN(C)c1nccc(C(C)(C)O)n1)C(=O)c1ccccc1OCC(F)(F)F [Example H-20, N-ethyl-N-(2-((4-(2-hydroxypropan-2-yl)pyrimidin-2-yl)(methyl)amino)ethyl)-2-(2,2,2-trifluoroethoxy)benzamide] | 7.49
16 | CCN(CCN(C)c1cc(C#N)ccn1)C(=O)c1cc(F)ccc1-n1nccn1 [Example F-30, N-{2-[(4-cyanopyridin-2-yl)(methyl)amino]ethyl}-N-ethyl-5-fluoro-2-(2H-1,2,3-triazol-2-yl)benzamide] | 7.61
17 | CCN(CCN(C)c1cccc(C(C)(C)O)n1)C(=O)c1ncccc1-n1nccn1 [Example I-9, N-ethyl-N-(2-((6-(2-hydroxypropan-2-yl)pyridin-2-yl)(methyl)amino)ethyl)-3-(2H-1,2,3-triazol-2-yl)picolinamide] | 6.51

Row | SMILES | pIC50
18 | CCN(CCN(C)c1cccc(C(C)(C)O)n1)C(=O)c1ccccc1C1CC1(F)F (stereo not drawn) [Example I-20, 2-(2,2-difluorocyclopropyl)-N-ethyl-N-(2-((6-(2-hydroxypropan-2-yl)pyridin-2-yl)(methyl)amino)ethyl)benz-amide] | 7.44
19 | CCN(CCN(C)c1cccc(C#N)n1)C(=O)c1ccccc1-n1nccn1 [Example E-14, N-{2-[(6-cyanopyridin-2-yl)(methyl)amino]ethyl}-N-ethyl-2-(2H-1,2,3-triazol-2-yl)benzamide] | 6.25
20 | CCN(CCN(C)c1cc(C#N)ccn1)C(=O)c1ccccc1-n1cc(C)nn1 [Example F-21, N-{2-[(4-cyanopyridin-2-yl)(methyl)amino]ethyl}-N-ethyl-2-(4-methyl-1H-1,2,3-triazol-1-yl)benzamide] | 6.47
21 | CCCc1ccccc1C(=O)N(CC)CCN(C)c1nc(C)cc(C)n1 [Example B-16, N-{2-[(4,6-dimethylpyrimidin-2-yl)(methyl)amino]ethyl}-N-ethyl-2-propylbenzamide] | 7.70
22 | CCN(CCN(C)c1nc(C)cc(C)n1)C(=O)c1ccccc1-c1ncccn1 [Example B-32, N-{2-[(4,6-dimethylpyrimidin-2-yl)(methyl)amino]ethyl}-N-ethyl-2-pyrimidin-2-ylbenzamide] | 7.71
23 | CCOc1cccc(C(=O)N(CC)CCN(C)c2cc(C#N)ccn2)c1OC [Example F-29, N-{2-[(4-cyanopyridin-2-yl)(methyl)amino]ethyl}-3-ethoxy-N-ethyl-2-methoxybenzamide] | 5.00
24 | CCN(CCN(C)c1cc(C#N)ccn1)C(=O)c1ccccc1OCCF [Example F-13, N-{2-[(4-cyanopyridin-2-yl)(methyl)amino]ethyl}-N-ethyl-2-(2-fluoroethoxy)benzamide] | 7.32
25 | CCN(CCN(C)c1nccc(C(C)(C)O)n1)C(=O)c1ncccc1-n1nccn1 [Example H-34, N-ethyl-N-[2-[[4-(1-hydroxy-1-methyl-ethyl)pyrimidin-2-yl]-methyl-amino]ethyl]-3-(triazol-2-yl)pyridine-2-carboxamide] | 7.37
26 | CCN(CCN(C)c1nc(C)cc(C)n1)C(=O)c1cccnc1OCC(F)F [Example B-10, 2-(2,2-difluoroethoxy)-N-(2-((4,6-dimethylpyrimidin-2-yl)(methyl)amino)ethyl)-N-ethylnicotinamide] | 7.39
27 | CCN(CCN(C)c1cc(C#N)ccn1)C(=O)c1ccccc1C1(C#N)CCOCC1 [Example F-10, N-{2-[(4-cyanopyridin-2-yl)(methyl)amino]ethyl}-2-(4-cyanotetrahydro-2H-pyran-4-yl)-N-ethylbenzamide] | 5.14
28 | CCN(CCN(C)c1nc(C)cc(C)n1)C(=O)c1cccnc1-c1ccccc1 [Example B-9, N-(2-((4,6-dimethylpyrimidin-2-yl)(methyl)amino)ethyl)-N-ethyl-2-phenylnicotinamide] | 7.58
29 | CCN(CCN(C)c1ncc(Cl)c(C(F)(F)F)n1)C(=O)c1ccccc1-n1nccn1 [Example E-16, N-(2-{[5-chloro-4-(trifluoromethyl)pyrimidin-2-yl](methyl)amino}ethyl)-N-ethyl-2-(2H-1,2,3-triazol-2-yl)benzamide] | 7.07
30 | CCN(CCN(C)c1nc(C)cc(C)n1)C(=O)c1ccccc1CC(F)F [Example B-23, 2-(2,2-difluoroethyl)-N-{2-[(4,6-dimethylpyrimidin-2-yl)(methyl)amino]ethyl}-N-ethylbenzamide] | 7.02
31 | CCOc1nc2cccc(C(=O)N(CC)CCN(C)c3cc(C#N)ccn3)c2[nH]1 [Example F-19, N-{2-[(4-cyanopyridin-2-yl)(methyl)amino]ethyl}-2-ethoxy-N-ethyl-1H-benzimidazole-7-carboxamide] | 5.00
32 | CCN(CCN(C)c1cc(C#N)ccn1)C(=O)c1ccccc1-n1nccn1 [Example E-1, N-(2-((4-cyanopyridin-2-yl)(methyl)amino)ethyl)-N-ethyl-2-(2H-1,2,3-triazol-2-yl)benzamide] | 7.84
33 | CCN(CCN(C)c1cc(C#N)ccn1)C(=O)c1ccccc1-n1ccnn1 [Example F-28, N-{2-[(4-cyanopyridin-2-yl)(methyl)amino]ethyl}-N-ethyl-2-(1H-1,2,3-triazol-1-yl)benzamide] | 6.34

From US10011595B2 (Merck Sharp & Dohme Corp., priority 2014, dated 2018)
